pEC50, pKi: −log10 of the molar value.

The results in this text go back to PMC6930500, “Structure–Activity Relationships of 7-Substituted Dimethyltyrosine-Tetrahydroisoquinoline Opioid Peptidomimetics” (Molecules, 2019).

In test [1] the target is T1, human DOR (Homo sapiens, UniProt P41143).
T1 construct: expressed in transfected cells; cell lines provided by Professor Lawrence Toll
Description: [35S]-GTPγS binding stimulation, DOR. As to conditions: mean (SEM), * n = 2; for % Stimulation DOR: versus 10 µM standard agonist DPDPE, dns = average maximal stimulation <10% at up to 10 µM. In kind it is biochemical. As for the experimental part:
(§1) Each novel compound was evaluated for binding to and stimulation of KOR, MOR, and DOR. Binding affinity (Ki) was determined by competitive displacement of [^3H]-diprenorphine, a non-selective opioid receptor antagonist with similar affinity for each of the three receptors. Potency (EC50) and efficacy, expressed as percent stimulation compared to a standard agonist at each receptor, were determined by a [^35S]-GTPγS binding assay.
(§2) Membranes prepared from transfected Chinese Hamster Ovary cells stably expressing human KOR, human MOR, or human DOR were used for all assays. Cells were grown to confluence at 37 °C in 5% CO2 in 1:1 DMEM:F12 media with 10% v/v fetal bovine serum and 5% v/v penicillin/streptomycin. Membranes were prepared by washing confluent cells three times with ice cold phosphate-buffered saline (0.9% NaCl, 0.61 mM Na2HPO4, 0.38 mM KH2PO4, pH 7.4). Cells were detached from the plates by incubation in warm harvesting buffer (20 mM HEPES, 150 mM NaCl, 0.68 mM EDTA, pH 7.4) and pelleted by centrifugation at 200× g for 3 min. The cell pellet was suspended in ice-cold 50 mM Tris-HCl buffer, pH 7.4 and homogenized with a Tissue Tearor (Biospec Products, Inc, distributed by Cole-Parmer, Vernon Hills, IL, USA) for 20 s at setting 4. The homogenate was centrifuged at 20,000× g for 20 min at 4 °C, and the pellet was rehomogenized in 50 mM Tris-HCl pH 7.4 with a Tissue Tearor for 10 s at setting 2, followed by recentrifugation. The final pellet was resuspended in 50 mM Tris-HCl pH 7.4 and frozen in aliquots at −80 °C. Protein concentration was determined via Pierce BCA protein assay kit using bovine serum albumin as the standard.
(§3) Agonist stimulation of KOR, MOR, and DOR by all test compounds was determined by [^35S]-guanosine 5′-O-[γ-thio]triphosphate ([^35S]-GTPγS) binding assays as previously reported. In a 96-well plate format, membranes from cells expressing opioid receptors as described above (10 µg of protein), [^35S]-GTPγS (0.1 nM), and guanosine diphosphate (30 µM) were incubated in GTPγS buffer (50 mM Tris-HCl, 100 mM NaCl, 5 mM MgCl2, 1 mM EDTA, pH 7.4) with various concentrations of test compound at 25 °C for 1 h. Basal stimulation was determined by incubation in the absence of any ligand. After incubation, membranes were filtered through Whatman GF/C 1.2 micron glass fiber filters and washed with GTPγS buffer with no EDTA. The radioactivity remaining on the filters was then quantified by liquid scintillation counting after saturation with EcoLume liquid scintillation cocktail in a Perkin-Elmer Microbeta 2450. Data are reported as percent stimulation compared to the effects of 10 µM standard agonists—U69,593 (KOR), DAMGO (MOR), or DPDPE (DOR). Percent stimulation and EC50 values were determined via nonlinear regression analysis using GraphPad Prism software from at least three separate assays performed in duplicate. Efficacy is expressed as percent stimulation relative to standard agonists.
A general note: Binding of GTPγS marks nucleotide exchange on a G protein.

Test [2] deals with T2, human MOR (Homo sapiens, UniProt P35372).
T2 construct: expressed in transfected cells; cell lines provided by Professor Lawrence Toll
Description: [35S]-GTPγS binding stimulation, MOR. In kind it is biochemical. As to conditions: for pEC50: CHO-human MOR membranes, dns = does not stimulate, average maximal stimulation <10% at up to 10 µM; for pEC50 / Emax: mean (SEM), * n = 2; for Emax: versus 10 µM standard agonist DAMGO, dns = average maximal stimulation <10% at up to 10 µM. The method, then: as §1, §2, §3

Test [3] concerns the target T3, human KOR (Homo sapiens, UniProt P41145).
T3 construct: expressed in transfected cells; cell lines provided by Professor Lawrence Toll
Description: [3H]-diprenorphine competitive displacement binding, KOR. As to conditions: for pKi: membranes from CHO cells expressing human KOR, mean (SEM), n>=3 in duplicate. As for the experimental part: as §1, §2
(§4) Binding affinities for all test compounds at KOR, MOR, and DOR were determined by competitive displacement of [^3H]-diprenorphine as previously reported. In a 96-well plate format, cell membranes (5–10 µg of protein) and [^3H]-diprenorphine (0.2 nM) were incubated in Tris-HCl buffer (50 mM, pH 7.4) with various concentrations of test compound at 25 °C for 1 h, allowing the mixture to reach equilibrium. Nonspecific binding was determined using the opioid antagonist naloxone (10 µM), and total binding was determined using vehicle in the absence of competitive ligand. After incubation, membranes were filtered through Whatman GF/C 1.2 micron glass fiber filters and washed with 50 mM Tris-HCl buffer. The radioactivity remaining on the filters was then quantified by liquid scintillation counting after saturation with EcoLume liquid scintillation cocktail in a Microbeta 2450 (Perkin-Elmer, Waltham, MA, USA). Binding affinity (Ki) values were calculated using the Cheng–Prusoff equation via nonlinear regression analysis using GraphPad Prism software from at least three separate binding assays performed in duplicate.

Test [4] deals with T3, human KOR. The test can be described thus: [35S]-GTPγS binding stimulation, KOR. As to conditions: mean (SEM); for pEC50 / EC50 KOR: CHO-human KOR membranes, * n = 2, dns = does not stimulate, average maximal stimulation <10% at up to 10 µM; for Emax / % Stimulation KOR: versus 10 µM standard agonist U69,593, dns = average maximal stimulation <10% at up to 10 µM. In kind it is biochemical. The method, then: as §1, §2, §3

In test [5] the target is T2, human MOR. The test can be described thus: [3H]-diprenorphine competitive displacement binding, MOR. Particulars: membranes from CHO cells expressing human MOR; mean (SEM), n>=3 in duplicate. The method, then: as §1, §2, §4
Test [6] deals with T1, human DOR. Description: [3H]-diprenorphine competitive displacement binding, DOR. Particulars: membranes from CHO cells expressing human DOR; mean (SEM), n>=3 in duplicate. As for the experimental part:
as §1, §2, §4

Where [7] appears, read: CHO-human DOR membranes, dns = does not stimulate, average maximal stimulation <10% at up to 10 µM.

Take `Cc1cc(O)cc(C)c1C[C@H](N)C(=O)N1CCc2ccc(Cc3cccc4ncccc34)cc2C1` [Compound 8t, (S)-2-amino-3-(4-hydroxy-2,6-dimethylphenyl)-1-(7-(quinolin-5-ylmethyl)-3,4-dihydroisoquinolin-2(1H)-yl)propan-1-one]: in test [1] (setting [7]), the “EC50 DOR” value is on record as “dns *”. Moreover, the “% Stimulation DOR” value in test [1] is “dns *”. The pEC50 – broadly, the negative decadic logarithm of the EC50, by convention in mol/L – in test [2] was 7.27; in test [4] it was 7.24. The “more potent at MOR (versus KOR)” value in test [2] (ratio of EC50 values, GTPγS) is recorded as “equipotent”. In addition, the results for the Emax in test [2] and in test [4] were 31% and 69%, respectively. The “selective for KOR and DOR over MOR” value in test [3] (binding selectivity) was “approximately 3 fold”. The pKi (as a rule, the negative decadic logarithm of the Ki, by convention in mol/L) in test [3] was 8.82; in test [5], 8.34; in test [6], 8.92.

For the molecule `Cc1cc(O)cc(C)c1C[C@H](N)C(=O)N1CCc2ccc(Cc3ccnc4ccccc34)cc2C1` [Compound 8u, (S)-2-amino-3-(4-hydroxy-2,6-dimethylphenyl)-1-(7-(quinolin-4-ylmethyl)-3,4-dihydroisoquinolin-2(1H)-yl)propan-1-one], the “EC50 DOR” value in test [1] (setting [7]) is listed as “dns *”. For the same molecule, the “% Stimulation DOR” value in test [1] was “dns *”. In test [2], the pEC50 was 7.27 and the maximal effect (Emax) (usually the maximal effect, on the per cent scale that the assay sets) turned out to be 45%. Further, the pKi in test [3] was 8.07. Besides, in test [4], the “EC50 KOR” value is “dns” and the “% Stimulation KOR” value was “dns”. This molecule had a pKi in test [5] of 8.18. Also, the pKi in test [6] was 9.10.

In the case of `Cc1cc(O)cc(C)c1C[C@H](N)C(=O)N1CCc2ccc(Cc3cncc4ccccc34)cc2C1` [Compound 8v, (S)-2-amino-3-(4-hydroxy-2,6-dimethylphenyl)-1-(7-(isoquinolin-4-ylmethyl)-3,4-dihydroisoquinolin-2(1H)-yl)propan-1-one], the pEC50 is 7.72 in test [1] (setting [7]), 7.92 in test [2] and 7.85 in test [4]. Also, in test [1], the “% Stimulation DOR” value is 39 (7) %. Besides, the Emax amounted to 81% in test [2] and 71% in test [4]. Besides, the figures for the negative logarithm of the Ki (pKi) in test [3], in test [5] and in test [6] were 9.14, 8.85 and 9.52, respectively.

Consider `Cc1cc(O)cc(C)c1C[C@H](N)C(=O)N1CCc2ccc(CN3CCc4ccccc4C3)cc2C1` [Compound 8w, (S)-2-amino-1-(7-((3,4-dihydroisoquinolin-2(1H)-yl)methyl)-3,4-dihydroisoquinolin-2(1H)-yl)-3-(4-hydroxy-2,6-dimethylphenyl)propan-1-one], for which, in test [1] (setting [7]), the “EC50 DOR” value was “dns *”. Besides, the “% Stimulation DOR” value in test [1] is given as “dns *”. Further, in test [2], the pEC50 is 8.09 and the Emax is 85%. Further, in test [3] (binding selectivity), the “selectivity for MOR and DOR over KOR” value worked out at 18 fold. The molecule also gave a pKi in test [3] of 7.38. Also, in test [4], the “EC50 KOR” value was “dns” and the “% Stimulation KOR” value is on record as “dns”. Further, in test [5], the pKi was 9.22. Further, in test [6], the pKi is 8.64.

With `Cc1cc(O)cc(C)c1C[C@H](N)C(=O)N1CCc2ccc(CN3CCCc4ccccc43)cc2C1` [Compound 8x, (S)-2-amino-1-(7-((3,4-dihydroquinolin-1(2H)-yl)methyl)-3,4-dihydroisoquinolin-2(1H)-yl)-3-(4-hydroxy-2,6-dimethylphenyl)propan-1-one], the “EC50 DOR” value in test [1] (setting [7]) is given as “dns *”. Further, in test [1], the “% Stimulation DOR” value is listed as “dns *”. Further, the pEC50 in test [2] is 7.14; in test [4], 6.43. For the same molecule, the Emax in test [2] was 65%; in test [4] it was 67%. The pKi was 8.15 in test [3], 8.14 in test [5] and 8.18 in test [6].

In the case of `Cc1cc(O)cc(C)c1C[C@H](N)C(=O)N1CCc2ccc(CN3CCc4ccccc43)cc2C1` [Compound 8y, (S)-2-amino-3-(4-hydroxy-2,6-dimethylphenyl)-1-(7-(indolin-1-ylmethyl)-3,4-dihydroisoquinolin-2(1H)-yl)propan-1-one], the “EC50 DOR” value in test [1] (setting [7]) was “dns *”. Also, the “% Stimulation DOR” value in test [1] was “dns *”. Also, the pEC50 in test [2] was 7.38; in test [4] it was 6.97. The Emax amounted to 65% in test [2] and 66% in test [4]. Further, the values for the pKi in test [3], in test [5] and in test [6] were 8.59, 8.66 and 8.77, respectively.

With `Cc1cc(O)cc(C)c1C[C@H](N)C(=O)N1CCc2ccc(CN3Cc4ccccc4C3)cc2C1` [Compound 8z, (S)-2-amino-3-(4-hydroxy-2,6-dimethylphenyl)-1-(7-(isoindolin-2-ylmethyl)-3,4-dihydroisoquinolin-2(1H)-yl)propan-1-one], the “EC50 DOR” value in test [1] (setting [7]) is listed as “dns *”. In test [1], the “% Stimulation DOR” value was “dns *”. In test [2], this molecule showed a pEC50 of 7.57 and an Emax of 63%. Moreover, the “selectivity for MOR and DOR over KOR” value in test [3] (binding selectivity) came out at 43 fold. This molecule also had a negative-log Ki (pKi) in test [3] of 7.19. For the same molecule, in test [4], the “EC50 KOR” value was “dns” and the “% Stimulation KOR” value was “dns”. The same molecule showed a negative-log Ki (pKi) in test [5] of 8.82. For the same molecule, the pKi in test [6] was 8.89.
